Results published in ChEMBL document CHEMBL1201862, “PubChem BioAssay data set” (2004).
Where a name gives a salt, the structure may show the parent alone. Activity calls are given as the source filed them.

Key:
[1] = biological target: Voltage-gated inwardly rectifying potassium channel KCNH2 (Homo sapiens, UniProt Q12809); conditions: Potency;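 further: confirmatory quantitative high-throughput screen measuring inhibition of hERG channel activity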
[2] = biological target: CAAX prenyl protease 2 (Homo sapiens, UniProt Q9Y256); assay: inhibition of Ras-converting CAAX protease Rce1 – biochemical, yeast membranes, quenched-peptide fluorescence, cherry-pick, dose response (AID 588849)
[3] = biological target: Trypsin (Sus scrofa, UniProt P00761); assay: trypsin protease activity blockade – biochemical, quenched peptide fluorescence, cherry-pick, selectivity assay for Rce1 protease inhibitor project, dose response (AID 488789)
[4] = biological target: T1, CAAX prenyl protease 2 (Saccharomyces cerevisiae S288c, UniProt Q03530); type: biochemical
T1 sequence (Q03530 whole entry): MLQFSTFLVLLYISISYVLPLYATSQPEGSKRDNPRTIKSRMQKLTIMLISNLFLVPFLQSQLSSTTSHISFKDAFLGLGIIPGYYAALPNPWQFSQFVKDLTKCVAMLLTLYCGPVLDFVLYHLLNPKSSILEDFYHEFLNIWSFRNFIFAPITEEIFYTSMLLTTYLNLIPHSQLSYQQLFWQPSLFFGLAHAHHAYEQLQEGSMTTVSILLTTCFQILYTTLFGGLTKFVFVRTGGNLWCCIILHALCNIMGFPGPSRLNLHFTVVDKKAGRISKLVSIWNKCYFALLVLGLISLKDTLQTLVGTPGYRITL

[5] = biological target: T2, Type-1 angiotensin II receptor (Homo sapiens, UniProt P30556); assay: antagonism of angiotensin II type 1 receptor – cell-based, uHTS hits, selectivity assay for APJ receptor antagonist project, dose response (AID 463214); type: functional;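 further: antagonist potency against angiotensin II stimulated AT1 response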
T2 sequence (P30556 whole entry): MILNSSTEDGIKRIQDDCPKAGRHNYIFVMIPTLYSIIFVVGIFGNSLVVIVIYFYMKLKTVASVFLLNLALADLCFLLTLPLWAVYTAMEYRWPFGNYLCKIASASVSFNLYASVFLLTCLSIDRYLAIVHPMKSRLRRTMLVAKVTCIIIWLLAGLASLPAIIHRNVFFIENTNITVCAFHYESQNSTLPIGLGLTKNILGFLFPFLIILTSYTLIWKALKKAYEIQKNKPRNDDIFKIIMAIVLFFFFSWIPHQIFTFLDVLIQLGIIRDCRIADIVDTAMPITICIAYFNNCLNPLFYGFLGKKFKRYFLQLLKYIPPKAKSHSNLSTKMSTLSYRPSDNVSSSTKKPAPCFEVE

[6] = biological target: T3, Protein skinhead-1 (Caenorhabditis elegans, UniProt P34707); type: functional
T3 sequence (P34707 whole entry): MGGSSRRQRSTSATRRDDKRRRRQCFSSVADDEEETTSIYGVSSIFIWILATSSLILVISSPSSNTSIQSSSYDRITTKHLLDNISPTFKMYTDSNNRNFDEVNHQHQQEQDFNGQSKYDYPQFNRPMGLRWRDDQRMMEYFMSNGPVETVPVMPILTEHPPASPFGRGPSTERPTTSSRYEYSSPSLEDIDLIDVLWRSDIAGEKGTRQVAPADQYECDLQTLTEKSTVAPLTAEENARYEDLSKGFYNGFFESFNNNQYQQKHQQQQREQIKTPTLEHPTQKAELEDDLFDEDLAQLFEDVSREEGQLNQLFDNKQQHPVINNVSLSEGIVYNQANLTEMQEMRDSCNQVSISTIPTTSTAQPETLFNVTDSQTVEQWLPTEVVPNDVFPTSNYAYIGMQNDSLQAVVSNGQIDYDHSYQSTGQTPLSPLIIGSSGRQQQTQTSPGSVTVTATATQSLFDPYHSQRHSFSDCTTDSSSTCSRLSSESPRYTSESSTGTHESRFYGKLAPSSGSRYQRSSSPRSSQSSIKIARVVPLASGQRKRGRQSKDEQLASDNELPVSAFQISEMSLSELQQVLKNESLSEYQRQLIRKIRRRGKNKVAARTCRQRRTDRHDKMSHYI

[7] = biological target: Beta-galactosidase (Escherichia coli, UniProt Q8VNN2); assay: PubChem AID 485352; type: functional
[8] = test system: Vero; assay: cells; type: functional, cell-based; conditions: Chlorocebus sabaeus
[9] = biological target: T4, Hexokinase HKDC1 (Homo sapiens, UniProt Q2TB90); assay: SAR analysis of small molecule inhibitors of hexokinase domain containing I (HKDC1). [Related pubchem assays (depositor defined):AID493160, AID493190]; type: functional
T4 sequence (Q2TB90 whole entry): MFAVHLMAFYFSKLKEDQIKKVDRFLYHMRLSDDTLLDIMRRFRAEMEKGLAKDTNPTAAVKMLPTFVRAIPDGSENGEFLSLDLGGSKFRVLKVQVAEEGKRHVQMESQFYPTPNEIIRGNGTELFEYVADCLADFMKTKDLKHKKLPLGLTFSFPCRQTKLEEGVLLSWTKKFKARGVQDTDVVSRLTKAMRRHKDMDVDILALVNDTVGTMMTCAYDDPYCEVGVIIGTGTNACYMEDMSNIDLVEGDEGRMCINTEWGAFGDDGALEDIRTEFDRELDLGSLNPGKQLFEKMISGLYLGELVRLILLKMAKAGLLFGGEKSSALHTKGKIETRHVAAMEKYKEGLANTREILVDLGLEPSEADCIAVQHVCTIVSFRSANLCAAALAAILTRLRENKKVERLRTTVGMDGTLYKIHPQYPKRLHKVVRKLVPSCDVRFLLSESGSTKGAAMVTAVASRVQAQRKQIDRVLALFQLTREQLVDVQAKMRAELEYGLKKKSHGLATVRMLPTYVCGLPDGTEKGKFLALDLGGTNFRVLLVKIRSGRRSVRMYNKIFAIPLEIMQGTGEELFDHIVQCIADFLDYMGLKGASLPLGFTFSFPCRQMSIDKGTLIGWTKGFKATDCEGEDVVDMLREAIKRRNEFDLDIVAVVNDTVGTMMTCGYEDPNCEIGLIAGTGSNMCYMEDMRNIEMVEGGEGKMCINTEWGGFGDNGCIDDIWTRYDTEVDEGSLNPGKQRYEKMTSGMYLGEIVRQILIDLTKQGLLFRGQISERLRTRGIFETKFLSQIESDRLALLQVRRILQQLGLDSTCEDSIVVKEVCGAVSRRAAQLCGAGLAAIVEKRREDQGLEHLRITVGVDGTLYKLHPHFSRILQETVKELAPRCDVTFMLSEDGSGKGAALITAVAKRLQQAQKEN

[10] = biological target: T5, Hexokinase-1 (Homo sapiens, UniProt P19367); assay: SAR analysis of small molecule inhibitors of hexokinase domain containing I (HKDC1) in the hexokinase 1 selectivity assay. [Related pubchem assays (depositor defined):AID493160, AID493190]; type: functional
T5 sequence (P19367 whole entry): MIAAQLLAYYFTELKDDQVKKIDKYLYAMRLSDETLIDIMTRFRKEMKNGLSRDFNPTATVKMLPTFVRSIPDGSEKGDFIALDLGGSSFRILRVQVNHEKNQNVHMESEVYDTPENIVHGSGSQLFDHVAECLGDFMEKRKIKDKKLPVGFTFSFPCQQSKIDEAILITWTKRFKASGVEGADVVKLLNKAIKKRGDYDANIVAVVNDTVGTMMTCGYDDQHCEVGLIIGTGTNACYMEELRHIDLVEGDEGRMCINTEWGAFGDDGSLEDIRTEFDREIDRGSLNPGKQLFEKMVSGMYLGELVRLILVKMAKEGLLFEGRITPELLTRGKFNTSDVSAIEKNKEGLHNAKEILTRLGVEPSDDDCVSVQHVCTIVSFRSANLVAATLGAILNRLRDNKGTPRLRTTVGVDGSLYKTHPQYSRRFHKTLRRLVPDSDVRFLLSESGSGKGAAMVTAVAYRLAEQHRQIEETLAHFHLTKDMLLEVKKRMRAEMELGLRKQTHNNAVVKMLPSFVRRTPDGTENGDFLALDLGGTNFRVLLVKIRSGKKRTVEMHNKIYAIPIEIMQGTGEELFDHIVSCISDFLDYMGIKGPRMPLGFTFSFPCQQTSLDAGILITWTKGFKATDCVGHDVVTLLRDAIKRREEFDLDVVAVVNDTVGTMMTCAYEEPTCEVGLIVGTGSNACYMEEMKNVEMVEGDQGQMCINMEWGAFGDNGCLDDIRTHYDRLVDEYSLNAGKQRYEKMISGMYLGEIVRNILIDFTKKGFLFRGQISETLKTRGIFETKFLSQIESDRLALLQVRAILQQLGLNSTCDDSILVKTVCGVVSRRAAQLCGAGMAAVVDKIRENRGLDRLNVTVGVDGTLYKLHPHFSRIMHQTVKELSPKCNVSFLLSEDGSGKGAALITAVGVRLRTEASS

[11] = test system: Escherichia coli; assay: microbe, parasite or virus in culture
[12] = biological target: Dual specificity tyrosine-phosphorylation-regulated kinase 1A (Rattus norvegicus, UniProt Q63470); type: biochemical, Homo sapiens
[13] = biological target: T6, RNA-binding protein pos-1 (Caenorhabditis elegans, UniProt G5EF15); assay: disruptors of C. elegans POS-1 RNA interaction – biochemical, fluorescence polarization, dose response (AID 1964);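 further: purified POS-1 fused to maltose binding protein made in E. coli; potency of compounds blocking POS-1 binding to fluorescent RNA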
T6 sequence (G5EF15 whole entry): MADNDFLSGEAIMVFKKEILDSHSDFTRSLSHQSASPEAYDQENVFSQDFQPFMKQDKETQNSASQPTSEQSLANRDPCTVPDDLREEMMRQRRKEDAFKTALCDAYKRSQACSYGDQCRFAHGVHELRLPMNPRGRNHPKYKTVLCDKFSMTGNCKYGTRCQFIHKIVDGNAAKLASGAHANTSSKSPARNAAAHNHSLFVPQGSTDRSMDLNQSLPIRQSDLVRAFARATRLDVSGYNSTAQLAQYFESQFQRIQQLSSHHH

[14] = biological target: T7, Zinc finger protein mex-5 (Caenorhabditis elegans, UniProt Q9XUB2); assay: potency of MEX-5 RNA-binding blockers – biochemical, C. elegans, fluorescence polarization, dose response (AID 1960)
T7 sequence (Q9XUB2 whole entry): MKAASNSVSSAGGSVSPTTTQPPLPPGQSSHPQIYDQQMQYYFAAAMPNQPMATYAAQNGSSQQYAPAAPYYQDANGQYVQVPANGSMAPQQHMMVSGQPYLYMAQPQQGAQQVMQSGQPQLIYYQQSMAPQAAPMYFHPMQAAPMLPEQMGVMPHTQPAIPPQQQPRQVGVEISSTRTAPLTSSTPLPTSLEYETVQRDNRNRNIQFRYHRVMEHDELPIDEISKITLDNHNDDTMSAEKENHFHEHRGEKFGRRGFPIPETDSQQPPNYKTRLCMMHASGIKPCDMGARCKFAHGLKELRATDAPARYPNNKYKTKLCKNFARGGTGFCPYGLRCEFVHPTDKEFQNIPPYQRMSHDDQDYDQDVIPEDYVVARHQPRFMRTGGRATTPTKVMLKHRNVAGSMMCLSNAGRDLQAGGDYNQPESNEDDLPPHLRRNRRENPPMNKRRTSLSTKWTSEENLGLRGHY

[15] = test system: BJ; assay: BJ-TERT-LT-ST fibroblast viability loss – cell-based, RAS-independent, luminescence, dose response (AID 1935); type: functional; conditions: Homo sapiens;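 further: BJ fibroblasts immortalized with TERT plus LT and ST oncogenes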
[16] = test system: INS1; assay: INS-1E survival protection against cytokine death – cell-based, luminescence, retest, dose response (AID 449756); type: functional; conditions: Rattus norvegicus;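 further: cell death triggered by IL-1 beta plus TNF-alpha plus IFN-gamma mixture; protective hits raise ATP signal compared with cytokine alone wells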
[17] = NIH-3T3 fibroblast cytotoxicity, dose response, cytotoxicity control, cell-based, fluorescence, Alamar Blue, secondary assay (AID 2327); type: functional;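 further: NIH-3T3 mouse fibroblasts cultured with fluconazole at 8 µg/mL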
[18] = DRD fibroblast viability loss – cell-based, non-viral oncogenic, luminescence, dose response (AID 1934); type: functional; conditions: Homo sapiens
[19] = test system: BJ; assay: cells; type: functional, cell-based; conditions: Homo sapiens
[20] = biological target: Nonstructural protein 1 (Influenza A virus, UniProt Q194T2); type: functional, Influenza A virus (A/California/07/2009(H1N1))
[21] = test system: BJ; assay: BJ-TERT fibroblast viability loss – cell-based, RAS-independent, luminescence, dose response (AID 1933); type: functional; conditions: Homo sapiens
[22] = test system: Vero; assay: cells; type: functional; conditions: Chlorocebus sabaeus
[23] = fluconazole-exposed Candida albicans growth modulators – fluorescence, retest, confirmation (AID 2467); type: functional, cell-based
[24] = A cytotoxicity screen of small molecule inhibitors of the PhoP region in Salmonella typhi identified in the primary screen. [Related pubchem assays: 1850, 1864, 1985 ]; type: functional
[25] = test system: Escherichia coli; assay: microbe, parasite or virus in culture; remark: listed apart in the source

Sequence of Trypsin (P00761 whole entry): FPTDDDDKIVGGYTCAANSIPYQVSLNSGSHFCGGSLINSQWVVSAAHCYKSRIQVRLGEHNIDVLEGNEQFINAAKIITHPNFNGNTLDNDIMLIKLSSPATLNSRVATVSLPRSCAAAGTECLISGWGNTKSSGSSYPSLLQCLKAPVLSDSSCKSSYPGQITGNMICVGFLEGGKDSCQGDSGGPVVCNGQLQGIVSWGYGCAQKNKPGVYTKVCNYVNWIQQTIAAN
Sequence of Beta-galactosidase (Q8VNN2 whole entry): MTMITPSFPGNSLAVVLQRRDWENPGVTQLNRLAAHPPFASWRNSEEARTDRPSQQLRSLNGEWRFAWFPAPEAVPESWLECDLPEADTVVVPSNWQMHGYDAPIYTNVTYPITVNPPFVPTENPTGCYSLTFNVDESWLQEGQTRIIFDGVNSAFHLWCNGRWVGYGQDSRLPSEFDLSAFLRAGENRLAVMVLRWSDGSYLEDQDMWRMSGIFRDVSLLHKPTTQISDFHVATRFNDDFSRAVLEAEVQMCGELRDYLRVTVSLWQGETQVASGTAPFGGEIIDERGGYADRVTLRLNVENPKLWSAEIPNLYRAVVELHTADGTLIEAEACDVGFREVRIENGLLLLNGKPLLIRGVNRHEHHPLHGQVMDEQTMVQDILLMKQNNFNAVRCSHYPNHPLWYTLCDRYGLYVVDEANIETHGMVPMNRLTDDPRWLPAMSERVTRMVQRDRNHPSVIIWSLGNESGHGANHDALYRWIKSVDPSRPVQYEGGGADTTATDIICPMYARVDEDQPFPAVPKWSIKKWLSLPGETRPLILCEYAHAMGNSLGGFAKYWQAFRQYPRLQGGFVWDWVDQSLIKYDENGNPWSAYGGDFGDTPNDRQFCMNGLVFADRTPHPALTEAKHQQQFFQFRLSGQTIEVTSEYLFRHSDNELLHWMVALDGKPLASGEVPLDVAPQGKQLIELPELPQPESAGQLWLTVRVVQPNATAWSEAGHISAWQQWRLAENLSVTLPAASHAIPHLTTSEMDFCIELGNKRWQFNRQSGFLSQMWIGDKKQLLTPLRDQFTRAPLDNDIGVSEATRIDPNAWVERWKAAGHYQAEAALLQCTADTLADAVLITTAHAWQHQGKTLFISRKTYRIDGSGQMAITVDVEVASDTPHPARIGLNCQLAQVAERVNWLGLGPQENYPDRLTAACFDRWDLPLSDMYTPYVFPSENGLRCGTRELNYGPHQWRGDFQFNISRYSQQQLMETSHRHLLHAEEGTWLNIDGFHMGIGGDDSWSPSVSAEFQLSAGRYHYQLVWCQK
Sequence of Voltage-gated inwardly rectifying potassium channel KCNH2 (Q12809 whole entry): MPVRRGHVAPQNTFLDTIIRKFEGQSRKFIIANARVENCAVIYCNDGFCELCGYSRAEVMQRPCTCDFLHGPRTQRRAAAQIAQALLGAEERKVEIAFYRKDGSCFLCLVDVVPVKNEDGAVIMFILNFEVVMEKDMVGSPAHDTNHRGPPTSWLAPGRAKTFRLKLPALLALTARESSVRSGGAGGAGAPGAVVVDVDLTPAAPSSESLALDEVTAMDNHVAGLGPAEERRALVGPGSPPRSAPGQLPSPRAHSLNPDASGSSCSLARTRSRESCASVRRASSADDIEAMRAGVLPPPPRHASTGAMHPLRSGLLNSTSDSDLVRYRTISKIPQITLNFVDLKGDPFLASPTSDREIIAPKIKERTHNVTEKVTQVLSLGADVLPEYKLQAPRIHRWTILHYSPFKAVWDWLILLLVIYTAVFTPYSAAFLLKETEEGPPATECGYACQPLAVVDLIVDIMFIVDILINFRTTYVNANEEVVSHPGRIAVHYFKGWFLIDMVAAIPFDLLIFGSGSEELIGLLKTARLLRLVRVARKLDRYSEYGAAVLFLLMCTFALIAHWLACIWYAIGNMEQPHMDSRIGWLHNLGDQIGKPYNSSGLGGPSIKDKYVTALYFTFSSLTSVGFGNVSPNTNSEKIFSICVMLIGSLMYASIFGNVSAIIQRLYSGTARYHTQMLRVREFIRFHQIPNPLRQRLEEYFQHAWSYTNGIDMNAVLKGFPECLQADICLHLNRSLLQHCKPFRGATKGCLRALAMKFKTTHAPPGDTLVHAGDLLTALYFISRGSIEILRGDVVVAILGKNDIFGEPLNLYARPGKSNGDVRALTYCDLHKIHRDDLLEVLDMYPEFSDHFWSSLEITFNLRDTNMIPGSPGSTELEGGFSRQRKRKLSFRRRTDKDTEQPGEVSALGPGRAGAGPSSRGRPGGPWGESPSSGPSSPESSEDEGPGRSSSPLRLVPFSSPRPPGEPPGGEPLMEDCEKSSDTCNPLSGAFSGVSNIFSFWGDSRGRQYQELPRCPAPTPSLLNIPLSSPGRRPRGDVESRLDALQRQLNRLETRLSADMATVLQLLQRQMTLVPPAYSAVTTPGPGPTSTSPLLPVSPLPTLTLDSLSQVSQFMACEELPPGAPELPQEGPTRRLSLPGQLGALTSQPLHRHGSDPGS
Sequence of CAAX prenyl protease 2 (Homo sapiens, UniProt Q9Y256) (Q9Y256 whole entry): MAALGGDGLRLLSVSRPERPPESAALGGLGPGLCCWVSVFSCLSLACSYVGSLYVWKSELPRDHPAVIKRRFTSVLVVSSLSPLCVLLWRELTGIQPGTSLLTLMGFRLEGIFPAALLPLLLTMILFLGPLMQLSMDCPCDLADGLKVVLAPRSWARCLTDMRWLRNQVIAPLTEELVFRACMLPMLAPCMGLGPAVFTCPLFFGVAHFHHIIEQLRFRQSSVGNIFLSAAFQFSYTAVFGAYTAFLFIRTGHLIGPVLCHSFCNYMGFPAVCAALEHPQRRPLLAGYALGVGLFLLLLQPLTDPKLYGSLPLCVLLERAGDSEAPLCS
Sequence of Nonstructural protein 1 (Q194T2 whole entry): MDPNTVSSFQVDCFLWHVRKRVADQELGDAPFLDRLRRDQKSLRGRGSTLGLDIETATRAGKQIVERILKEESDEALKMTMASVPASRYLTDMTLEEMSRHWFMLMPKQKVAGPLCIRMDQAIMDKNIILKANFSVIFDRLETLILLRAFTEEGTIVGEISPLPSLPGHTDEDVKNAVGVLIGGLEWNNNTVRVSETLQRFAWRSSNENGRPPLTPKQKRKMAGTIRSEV

In the case of `CN1CCN(CC/C=C2/c3ccccc3Sc3ccc(S(=O)(=O)N(C)C)cc32)CC1`, the AC50 [1] was 2.51 µM (inconclusive).

In the case of `COc1ccc(-n2nc(C(=O)NCC(=O)NCc3ccc(F)cc3)c3ccccc3c2=O)cc1`, the AC50 [2] was 9.42 µM (active), the AC50 [3] was 9.62 µM (active) and the AC50 [4] was 5.21 µM (active).

For `Cc1ccccc1NC(=O)CCC(=O)OCC(=O)c1cccc([N+](=O)[O-])c1`, the IC50 [5] was 33.6 µM (not active), the IC50 [6] was > 100 µM (inactive) and the EC50 [7] was > 40 µM (inactive).

In the case of `Cc1ccc2[nH]c(CN3CCC(CO)(CC4CCCCO4)CC3)c(C)c2c1` (stereo not drawn), the IC50 [8] was > 25 µM (active).

With `O=C(COC(=O)c1cccnc1Cl)c1ccc(Cl)cc1Cl` the IC50 [5] was 35.4 µM (not active) and the EC50 [7] was > 40 µM (inactive).

For `Cc1ccc(/C=C/c2nc3ccccc3c(=O)n2CCc2ccccc2)cc1`, the IC50 [9] was > 80 µM (inactive) and the IC50 [10] was > 80 µM (inactive).

In the case of `Cc1ccc(S(=O)(=O)Cc2cn3cccnc3n2)cc1`, the AC50 [2] was 34.3 µM (active), the AC50 [3] was 25.1 µM (active) and the AC50 [4] was 16.2 µM (active).

With `CCc1nc2ccccc2c(C(=O)OC2CCOC2=O)c1C` (stereo not drawn) the AC50 [11] was 42.9 µM (active).

In the case of `Cc1c(C(=O)O)cccc1-n1c(C)cc(/C=N/Nc2ccc([N+](=O)[O-])cn2)c1C`, the AC50 [12] was 6.79 µM (active), the EC50 [13] was > 300 µM (not active) and the EC50 [14] was 50.2 µM (active).

With `C/C(=N\NC(=O)c1cc(-c2cccs2)nc2ccccc12)c1ccccn1` the EC50 [15] was 1.14 µM (active), the IC50 [8] was > 25 µM (active) and the AC50 [16] was 0.366 µM (active). The EC50 [17] was 2.71 µM (inconclusive), the EC50 [18] was 1.41 µM (active) and the EC50 [19] was 2.12 µM (active). The IC50 [20] was 4.52 µM (active), the EC50 [21] was 1.3 µM (active) and the CC50 [22] was 1.62 µM (active). The EC50 [23] was 1.19 µM (active).

With `O=C1OCCN1/N=C/c1ccc([N+](=O)[O-])o1` [FURAZOLIDONE] the EC50 [24] was > 50 µM (active), the AC50 [11] was 17.8 µM (active) and the AC50 [25] was 24.4 µM (active).

In the case of `CCCN1CCC[C@@H]2Cc3n[nH]cc3C[C@H]21` [QUINPIROLE HYDROCHLORIDE], the AC50 [1] was 11.2 µM (inconclusive).
